Usually AC50 stands for the concentration giving half of the maximal activity seen.

Where a SMILES comes first, the peptide text is derived from it.

This note sets out measurements from ChEMBL document CHEMBL5291721, “A preclinical secondary pharmacology resource illuminates target-adverse drug reaction associations of marketed drugs” (Nat Commun, 2023).

For assay [1], the target named is T1, Alpha-1A adrenergic receptor (Homo sapiens, UniProt P35348).
T1 sequence (P35348 whole entry): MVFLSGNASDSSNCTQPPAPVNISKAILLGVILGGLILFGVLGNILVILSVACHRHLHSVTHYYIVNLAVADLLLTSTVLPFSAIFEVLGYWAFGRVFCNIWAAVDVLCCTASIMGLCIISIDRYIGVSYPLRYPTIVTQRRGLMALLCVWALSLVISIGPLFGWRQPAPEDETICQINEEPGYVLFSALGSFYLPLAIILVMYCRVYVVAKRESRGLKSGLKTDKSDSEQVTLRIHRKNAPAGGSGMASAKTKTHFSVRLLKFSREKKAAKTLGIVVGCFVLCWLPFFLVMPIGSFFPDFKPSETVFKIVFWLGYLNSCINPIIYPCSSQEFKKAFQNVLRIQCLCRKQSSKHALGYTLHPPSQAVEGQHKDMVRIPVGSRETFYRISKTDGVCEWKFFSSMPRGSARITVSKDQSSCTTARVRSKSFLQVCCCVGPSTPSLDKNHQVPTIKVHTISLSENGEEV
The assay is classed as functional, cell-based.

Assay [2] concerns the target T2, Alpha-2A adrenergic receptor (Homo sapiens, UniProt P08913).
T2 sequence (P08913 whole entry): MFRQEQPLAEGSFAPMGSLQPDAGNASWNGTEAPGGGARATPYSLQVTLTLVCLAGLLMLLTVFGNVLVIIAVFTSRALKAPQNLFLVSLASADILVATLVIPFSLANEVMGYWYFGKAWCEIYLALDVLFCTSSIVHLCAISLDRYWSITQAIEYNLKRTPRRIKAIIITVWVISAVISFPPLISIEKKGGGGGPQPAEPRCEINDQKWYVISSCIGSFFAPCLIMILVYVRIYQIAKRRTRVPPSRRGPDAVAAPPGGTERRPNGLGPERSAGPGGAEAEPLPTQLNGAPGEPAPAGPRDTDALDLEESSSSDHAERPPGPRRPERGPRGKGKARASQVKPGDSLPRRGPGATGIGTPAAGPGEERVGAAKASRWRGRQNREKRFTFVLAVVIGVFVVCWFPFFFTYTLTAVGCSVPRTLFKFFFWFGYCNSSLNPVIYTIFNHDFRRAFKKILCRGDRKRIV
The assay is classed as functional, cell-based.

Assay [3] addresses Neuronal acetylcholine receptor subunit alpha-4 (Homo sapiens, UniProt P43681).
Assay [4] addresses Cannabinoid receptor 1 (Homo sapiens, UniProt P21554). The assay is classed as functional, cell-based.
Assay [5] addresses 5-hydroxytryptamine receptor 2A (Homo sapiens, UniProt P28223). It counts as functional, cell-based.
Assay [6] addresses T3, 5-hydroxytryptamine receptor 3A (Homo sapiens, UniProt P46098).
T3 sequence (P46098 whole entry): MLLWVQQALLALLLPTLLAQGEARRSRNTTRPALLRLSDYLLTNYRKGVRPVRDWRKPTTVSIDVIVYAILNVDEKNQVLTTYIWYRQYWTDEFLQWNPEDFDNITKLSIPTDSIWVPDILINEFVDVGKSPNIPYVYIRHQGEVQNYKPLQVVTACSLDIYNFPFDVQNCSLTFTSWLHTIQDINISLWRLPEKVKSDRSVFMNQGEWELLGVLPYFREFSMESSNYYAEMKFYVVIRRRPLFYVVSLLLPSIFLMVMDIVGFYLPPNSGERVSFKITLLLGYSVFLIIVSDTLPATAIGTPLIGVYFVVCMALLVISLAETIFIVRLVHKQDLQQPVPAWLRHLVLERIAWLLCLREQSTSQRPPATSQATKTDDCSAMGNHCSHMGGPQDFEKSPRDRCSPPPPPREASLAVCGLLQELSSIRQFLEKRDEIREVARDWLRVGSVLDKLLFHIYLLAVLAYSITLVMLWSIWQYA
The assay is classed as functional.

The target of assay [7] is Voltage-gated inwardly rectifying potassium channel KCNH2 (Homo sapiens, UniProt Q12809). It counts as functional. The following applies: read-out: AC50.
Sequence of Voltage-gated inwardly rectifying potassium channel KCNH2 (Q12809 whole entry): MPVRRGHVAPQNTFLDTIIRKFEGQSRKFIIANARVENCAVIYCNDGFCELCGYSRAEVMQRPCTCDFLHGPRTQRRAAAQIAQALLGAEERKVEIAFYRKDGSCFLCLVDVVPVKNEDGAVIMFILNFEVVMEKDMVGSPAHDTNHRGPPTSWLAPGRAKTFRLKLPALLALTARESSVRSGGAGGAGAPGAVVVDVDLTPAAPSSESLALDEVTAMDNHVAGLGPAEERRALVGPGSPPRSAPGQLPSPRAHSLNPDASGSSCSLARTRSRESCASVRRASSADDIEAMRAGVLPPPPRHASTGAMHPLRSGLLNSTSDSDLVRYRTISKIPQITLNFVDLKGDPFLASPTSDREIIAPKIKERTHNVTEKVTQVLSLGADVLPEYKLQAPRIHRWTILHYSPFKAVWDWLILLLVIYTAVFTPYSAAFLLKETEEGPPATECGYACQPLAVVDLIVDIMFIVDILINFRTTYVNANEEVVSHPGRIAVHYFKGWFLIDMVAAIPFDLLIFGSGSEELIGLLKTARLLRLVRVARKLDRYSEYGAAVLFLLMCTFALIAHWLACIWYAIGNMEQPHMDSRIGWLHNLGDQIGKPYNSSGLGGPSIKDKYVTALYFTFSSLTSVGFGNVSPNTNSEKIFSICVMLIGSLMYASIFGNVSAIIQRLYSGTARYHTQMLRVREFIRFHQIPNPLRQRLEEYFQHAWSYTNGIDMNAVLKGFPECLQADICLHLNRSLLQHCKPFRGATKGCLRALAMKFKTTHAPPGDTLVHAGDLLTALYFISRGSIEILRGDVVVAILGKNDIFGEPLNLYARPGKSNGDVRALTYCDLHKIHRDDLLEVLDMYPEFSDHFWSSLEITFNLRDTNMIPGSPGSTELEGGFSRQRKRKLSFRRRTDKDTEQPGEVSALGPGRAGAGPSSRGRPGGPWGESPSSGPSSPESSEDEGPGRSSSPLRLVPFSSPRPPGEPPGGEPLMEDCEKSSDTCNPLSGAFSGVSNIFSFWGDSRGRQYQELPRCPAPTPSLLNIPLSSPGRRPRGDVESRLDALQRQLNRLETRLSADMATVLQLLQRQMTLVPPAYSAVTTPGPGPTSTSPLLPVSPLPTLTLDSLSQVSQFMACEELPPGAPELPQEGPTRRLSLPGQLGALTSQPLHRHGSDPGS
The target in assay [8] is Motilin receptor (Homo sapiens, UniProt O43193).
Sequence of Motilin receptor (O43193 whole entry): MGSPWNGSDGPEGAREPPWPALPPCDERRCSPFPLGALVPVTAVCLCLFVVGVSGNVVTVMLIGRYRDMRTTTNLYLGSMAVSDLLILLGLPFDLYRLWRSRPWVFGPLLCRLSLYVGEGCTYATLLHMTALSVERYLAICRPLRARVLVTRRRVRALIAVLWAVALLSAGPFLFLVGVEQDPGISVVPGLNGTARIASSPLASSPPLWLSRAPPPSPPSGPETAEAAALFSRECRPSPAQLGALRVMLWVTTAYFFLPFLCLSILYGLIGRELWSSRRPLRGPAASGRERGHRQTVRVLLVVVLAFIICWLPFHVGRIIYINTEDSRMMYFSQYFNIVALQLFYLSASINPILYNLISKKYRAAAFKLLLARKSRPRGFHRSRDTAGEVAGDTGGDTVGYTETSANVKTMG
The target of assay [9] is T4, Prostaglandin G/H synthase 1 (Rattus norvegicus, UniProt Q63921).
T4 sequence (Q63921 whole entry): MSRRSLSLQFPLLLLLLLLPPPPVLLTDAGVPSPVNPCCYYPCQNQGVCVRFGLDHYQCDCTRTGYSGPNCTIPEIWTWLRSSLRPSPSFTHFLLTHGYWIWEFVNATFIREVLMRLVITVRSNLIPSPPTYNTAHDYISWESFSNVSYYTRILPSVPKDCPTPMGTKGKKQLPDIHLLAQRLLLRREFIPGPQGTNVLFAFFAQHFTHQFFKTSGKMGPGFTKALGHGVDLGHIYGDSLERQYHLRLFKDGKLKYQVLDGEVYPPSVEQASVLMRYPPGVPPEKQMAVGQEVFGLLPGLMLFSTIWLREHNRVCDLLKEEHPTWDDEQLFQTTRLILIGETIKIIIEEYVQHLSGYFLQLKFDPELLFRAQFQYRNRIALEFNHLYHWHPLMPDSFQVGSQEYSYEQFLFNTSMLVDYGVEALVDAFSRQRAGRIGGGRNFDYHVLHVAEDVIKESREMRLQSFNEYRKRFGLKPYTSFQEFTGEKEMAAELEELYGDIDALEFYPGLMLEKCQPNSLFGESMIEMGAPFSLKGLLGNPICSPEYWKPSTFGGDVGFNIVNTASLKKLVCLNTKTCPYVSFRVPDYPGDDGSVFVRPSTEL
The assay is classed as functional.

Assay [10] deals with Sodium-dependent noradrenaline transporter (Homo sapiens, UniProt P23975).
Sequence of Sodium-dependent noradrenaline transporter (P23975 whole entry): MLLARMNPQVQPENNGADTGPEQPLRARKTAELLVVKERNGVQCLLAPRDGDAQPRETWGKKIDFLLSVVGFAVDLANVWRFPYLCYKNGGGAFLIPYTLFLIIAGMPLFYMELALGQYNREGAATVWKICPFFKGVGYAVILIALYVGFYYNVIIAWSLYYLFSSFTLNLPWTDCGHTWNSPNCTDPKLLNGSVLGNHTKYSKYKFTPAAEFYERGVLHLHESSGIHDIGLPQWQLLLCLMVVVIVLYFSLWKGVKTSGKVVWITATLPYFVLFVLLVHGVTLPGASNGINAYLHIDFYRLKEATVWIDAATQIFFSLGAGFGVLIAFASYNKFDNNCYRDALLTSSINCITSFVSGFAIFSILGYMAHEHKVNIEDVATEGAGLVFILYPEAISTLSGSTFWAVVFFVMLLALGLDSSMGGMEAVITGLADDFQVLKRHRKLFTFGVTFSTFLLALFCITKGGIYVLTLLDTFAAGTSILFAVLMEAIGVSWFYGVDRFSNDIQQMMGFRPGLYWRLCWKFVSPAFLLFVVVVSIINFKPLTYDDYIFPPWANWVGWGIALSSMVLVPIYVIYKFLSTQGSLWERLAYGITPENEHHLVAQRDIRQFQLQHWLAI
Assay [11] deals with D(3) dopamine receptor (Homo sapiens, UniProt P35462).
Sequence of D(3) dopamine receptor (P35462 whole entry): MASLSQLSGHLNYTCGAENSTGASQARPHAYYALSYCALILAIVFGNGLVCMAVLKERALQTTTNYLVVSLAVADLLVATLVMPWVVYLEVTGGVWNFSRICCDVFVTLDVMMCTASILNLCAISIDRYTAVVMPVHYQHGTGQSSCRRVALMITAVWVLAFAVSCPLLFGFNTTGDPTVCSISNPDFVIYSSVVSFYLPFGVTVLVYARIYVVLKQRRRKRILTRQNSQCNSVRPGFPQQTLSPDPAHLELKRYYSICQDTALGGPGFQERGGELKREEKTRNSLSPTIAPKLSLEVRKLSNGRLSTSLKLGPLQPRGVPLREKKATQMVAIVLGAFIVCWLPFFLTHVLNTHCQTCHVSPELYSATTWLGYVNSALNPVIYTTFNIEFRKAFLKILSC
Assay [12] addresses T1, Alpha-1A adrenergic receptor. The assay is classed as functional, cell-based. This is another data set of the same source.
Further: assay procedure not described here.

Sequence of Cannabinoid receptor 1 (P21554 whole entry): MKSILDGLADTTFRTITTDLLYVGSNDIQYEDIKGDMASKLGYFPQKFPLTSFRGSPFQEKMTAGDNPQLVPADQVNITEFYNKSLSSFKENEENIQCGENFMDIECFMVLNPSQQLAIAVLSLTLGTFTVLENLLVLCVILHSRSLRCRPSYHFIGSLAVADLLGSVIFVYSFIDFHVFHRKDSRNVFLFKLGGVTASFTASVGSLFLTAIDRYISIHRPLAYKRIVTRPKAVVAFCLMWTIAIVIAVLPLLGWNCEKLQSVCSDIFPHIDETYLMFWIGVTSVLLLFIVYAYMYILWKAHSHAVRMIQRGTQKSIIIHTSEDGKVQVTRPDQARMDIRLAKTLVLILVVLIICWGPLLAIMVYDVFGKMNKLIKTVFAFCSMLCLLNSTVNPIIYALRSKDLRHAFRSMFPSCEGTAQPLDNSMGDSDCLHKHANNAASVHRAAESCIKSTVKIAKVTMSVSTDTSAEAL
Sequence of 5-hydroxytryptamine receptor 2A (P28223 whole entry): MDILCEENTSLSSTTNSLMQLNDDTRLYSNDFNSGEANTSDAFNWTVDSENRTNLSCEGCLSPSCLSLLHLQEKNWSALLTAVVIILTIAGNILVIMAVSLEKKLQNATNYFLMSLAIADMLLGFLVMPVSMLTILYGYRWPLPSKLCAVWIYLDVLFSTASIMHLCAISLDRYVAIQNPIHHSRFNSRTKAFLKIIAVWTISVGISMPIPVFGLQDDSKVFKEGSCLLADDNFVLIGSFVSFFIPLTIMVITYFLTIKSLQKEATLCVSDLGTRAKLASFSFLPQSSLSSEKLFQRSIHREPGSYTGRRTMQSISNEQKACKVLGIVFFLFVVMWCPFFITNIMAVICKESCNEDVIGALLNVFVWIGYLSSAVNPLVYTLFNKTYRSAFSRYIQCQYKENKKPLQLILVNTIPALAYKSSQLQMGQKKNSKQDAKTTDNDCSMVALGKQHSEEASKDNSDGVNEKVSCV
Sequence of Neuronal acetylcholine receptor subunit alpha-4 (P43681 whole entry): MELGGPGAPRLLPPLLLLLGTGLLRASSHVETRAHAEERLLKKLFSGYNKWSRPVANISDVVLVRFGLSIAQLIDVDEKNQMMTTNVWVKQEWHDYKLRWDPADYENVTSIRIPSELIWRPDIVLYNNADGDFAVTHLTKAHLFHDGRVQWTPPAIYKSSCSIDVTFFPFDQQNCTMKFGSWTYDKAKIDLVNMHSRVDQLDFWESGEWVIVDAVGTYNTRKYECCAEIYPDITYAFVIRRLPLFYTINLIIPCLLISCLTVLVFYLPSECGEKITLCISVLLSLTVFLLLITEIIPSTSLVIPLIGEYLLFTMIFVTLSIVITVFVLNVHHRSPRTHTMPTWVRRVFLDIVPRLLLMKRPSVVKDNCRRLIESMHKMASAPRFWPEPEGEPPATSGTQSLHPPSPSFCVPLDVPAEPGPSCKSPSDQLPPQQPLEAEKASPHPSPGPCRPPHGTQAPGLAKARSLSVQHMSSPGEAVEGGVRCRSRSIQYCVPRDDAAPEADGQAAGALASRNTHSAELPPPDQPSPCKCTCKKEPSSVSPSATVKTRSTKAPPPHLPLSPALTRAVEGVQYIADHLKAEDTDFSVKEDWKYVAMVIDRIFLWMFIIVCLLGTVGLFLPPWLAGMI

As for `O=C(O)c1nn(Cc2ccc(Cl)cc2Cl)c2ccccc12` [LONIDAMINE], the half-maximal activity concentration (AC50) in assay [1], in assay [2], in [3], in assay [4], in assay [5] and in assay [6] was greater than 30 µM each time. Further, the concentration at half-maximal activity (AC50) in assay [7], in assay [8], in assay [9], in assay [10], in assay [11] and in assay [12] was greater than 30 µM each time.

Regarding `Cc1ccc(S(=O)(=O)NC(=O)N[C@H]2[C@H]3CC[C@@](C)([C@H]2O)C3(C)C)cc1` [GLIBORNURIDE], the AC50 in assay [1], in assay [2], in assay [3], in assay [4], in assay [5] and in [6] was greater than 30 µM throughout. In addition, the half-maximal activity concentration (AC50) in [7], in [8], in assay [9], in [10], in [11] and in assay [12] was greater than 30 µM throughout.

In the case of `CO/N=C(\C(=O)N[C@@H]1C(=O)N2C(C(=O)[O-])=C(C[n+]3ccc(N)n3CCO)CS[C@H]12)c1csc(N)n1` [CEFOSELIS], the AC50 in assay [1], in [2], in assay [3], in assay [4], in assay [5] and in assay [6] was greater than 30 µM throughout. The concentration at half-maximal activity (AC50) is greater than 30 µM in assay [7]; greater than 30 µM in assay [8]; greater than 30 µM in assay [9]; greater than 30 µM in assay [10]; greater than 30 µM in assay [11]; 30 µM in assay [12].

Consider `CCCCOC(=O)C(=O)Nc1cccc(-c2nnn[nH]2)c1` [TAZANOLAST], for which the AC50 in [1], in [2], in assay [3], in assay [4], in [5] and in [6] was greater than 30 µM each time. Moreover, the AC50 in assay [7], in [8], in assay [9], in assay [10], in assay [11] and in assay [12] was greater than 30 µM each time.

In the case of `COc1cc(N)cn[n+]1-c1ccccc1` [AMEZINIUM METILSULFATE], the AC50 was greater than 30 µM in [1]; greater than 30 µM in assay [2]; greater than 10 µM in [3]; greater than 30 µM in [4]; greater than 30 µM in assay [5]; greater than 30 µM in assay [6]. Moreover, the AC50 in [7] is 3.8 µM; in [8], greater than 30 µM; in assay [9], greater than 30 µM; in [10] it was 3.9 µM; in assay [11], greater than 30 µM; in [12], 25 µM.

For `C=C(c1ccccc1OCc1cccc(Cl)c1)n1ccnc1` [CROCONAZOLE], the AC50 in assay [1] was greater than 30 µM; in assay [2], greater than 10 µM; in assay [3], greater than 10 µM; in assay [4], 15 µM; in assay [5], greater than 30 µM; in assay [6], greater than 30 µM. Moreover, the AC50 in [7] is 4.97 µM; in assay [8] it was greater than 10 µM; in assay [9] it was 21.1 µM; in [10], 1.8 µM; in [11], greater than 30 µM; in assay [12], 21 µM.

As for `C[C@H](N)C(=O)N[C@@H](CCC(N)=O)C(=O)O` [ALANYL GLUTAMINE] (H-Ala-Gln-OH), the AC50 in assay [1], in assay [2], in [3], in assay [4], in assay [5] and in assay [6] was greater than 30 µM throughout. In addition, the half-maximal activity concentration (AC50) in assay [7], in assay [8], in assay [9], in assay [10], in assay [11] and in assay [12] was greater than 30 µM throughout.
